According to patent US5948782A, “Pharmaceutical composition containing quinoline and quinazoline derivatives and novel compounds therefor” (Takeda Chemical, priority 1992, dated 1999):

Tests used:
[1] = test system: Antigen-responsive T cell; experiment: Antigen-Responsive T Cell Growth Inhibitory Activity (PPD-stimulated 3H-Tdr incorporation); format: cell-based, Lewis rats; conditions: PPD 2 μg/ml, Lewis rat T cells, read-out: Antigen-responsive T cell growth inhibitory rate (%)
Method: Antigen-Responsive T Cell Growth Inhibitory Activity
According to the method of Test Example 1, adjuvant arthritis was induced in Lewis rats (male, 7 weeks old). After 14 days, lymphonodi inguinales were excised. Then, a single-cell suspension was prepared by using RPMI-1640 medium containing 5% fetal bovine serum and then incubated at 37° C. for 1 hour in a nylon wool column. The cells were eluted from the column with the same medium. The non-adsorptive cell-fraction was used as T cells.
On the other hand, spleen cells were taken out from unsensitized Lewis rats (male, 8 to 9 weeks old) and irradiated with soft X-rays (20,000 R). To the spleen cells (1×10^5 cells/well) were added the above T cells (5×10^5 cells/well), PPD (Purified Protein Derivatives; final concentration: 2 μg/ml) and 2% Lewis rat serum (treated at 56° C. for 30 minutes). The mixture was incubated at 37° C. for 72 hours in a 5% carbonic acid incubator. Further, ^3 H-Tdr (0.5 μCi/well) was added followed by incubation for 24 hours. The cells were recovered, and the radioactivity of ^3 H-Tdr incorporated into the cells was determined. The test drug was added to the cell suspension just before the addition of PPD, and effects on incorporation of ^3 H-Tdr into the cells were observed.

IL-1β = experiment: Anti-IL-1 activity (extracellular substrates of rat cartilage cells); format: cell-based; conditions: 72 h, IL-1β 0.2 ng/ml, 3 days, read-out: IL-1 inhibitory activity (%)
Method: Rat cartilage cells were prepared according to the known method [Fujio Suzuki et al., Sin Seikagaku Jikken Kohza, 18, p.871-875 (1990)] and cultivated in Dulbecco's Medium containing 10% fetal bovine serum. After 8 days, various concentrations of a test drug and IL-1β (0.2 ng/ml) were added, and the cells were cultivated for additional 3 days. The amount of extracellular substrates thus produced was determined.
Although IL-1β inhibits the synthesis of extracellular substrates of cartilage cells, addition of the drug inhibits the IL-1 activity and the amount of extracellular substrates synthesized was recovered.

[2] = test system: Rat Carrageenin Paw Edema; experiment: Rat Carrageenin Paw Edema Inhibitory Activity; format: in vivo; conditions: Jcl:SD rats, 50 mg/kg orally, 3 hours after carrageenin
Method: Rat Carrageenin Paw Edema Inhibitory Activity
The volume of a planter part of a right hind leg of Jcl:SD rats (male, 6 weeks old) was measured, and then suspension of a test drug (50 mg/kg) in 5% acacia was administered orally. Then water was administered additionally so that the total amount of administered liquid became 5 ml/rat. After 1 hour, a suspension (0.05 ml) containing 1% carrageenin in physiological saline was injected intradermally into the plantar to induce swelling [Winter, C. A. et al; Proc. Soc. Exp. Biol. Med., 111, 544 (1962)]. The volume of the right hind leg was measured again 3 hours after the carrageenin injection, and swelling inhibitory rate was calculated from the difference in the volumes before and after the injection.

mice = experiment: Oral toxicity in mice; format: in vivo; conditions: 300 mg/kg administered orally to mice
Method: The compounds of the present invention have low toxicity. For example, when 300 mg/kg of the compounds prepared in Examples 36, 45, 47, 54 and 64 were administered orally to mice, no mice died. Therefore, the compounds of the present invention are useful as an anti-inflammatory agent, particularly an agent for treating arthritis producing inflammatory symptoms, in humans and other mammals.

[3] = test system: mouse phenylquinone writhing; experiment: Analgesic Activity in Mice (phenylquinone writhing model); format: in vivo; conditions: Slc:ICR mice, 50 mg/kg orally, 20 minutes
Method: Analgesic Activity in Mice
A drug (50 mg/kg) suspended in 5% acacia was administered orally to Slc:ICR mice (male, 4 weeks old). After 30 minutes, a 0.02% phenylquinone solution (0.1 ml/[…]) in 5% ethanol was administered intraperitoneally. Writhing and stretching reactions for 20 minutes after the injection were calculated for each mouse to evaluate analgesic activity of the test drug [Siegmund, E. et al.; Proc. Soc. Exp. Biol. Med., 95, 729 (1957)].

CCOC(=O)c1c(CSc2nc3ccccc3c(=O)[nH]2)nc2cc(OC)c(OC)cc2c1-c1ccc(OC)c(OC)c1 [Example 64, ethyl 6,7-dimethoxy-4-(3,4-dimethoxyphenyl)-2-[(3,4-dihydro-4-oxoquinazolin-2-yl)thiomethyl]quinoline-3-carboxylate]
inhibition at 1 µM ([1]; 1 μM): 53% | inhibition at 10 µM ([1]; 10 μM): 78% | inhibition at 1 µM (IL-1β; 1 μM): 23% | inhibition at 10 µM (IL-1β; 10 μM): 50% | Swelling inhibitory rate (%) [2]: 36% | mortality (mice): no mice died | Inhibitory rate (%) [3]: 27%
